Measured values reported in patent US10231985B2, “Compounds and compositions comprising such compounds for the prevention or treatment of dyslipidaemias” (CENTRE NATIONAL DE LA RECHERCHE SCIENTIFIQUE, priority 2013, dated 2019).

Assays:
[1] = test system: hem1Δ yeasts grown under SFA accumulation conditions; assay: Restoration of growth of lipointoxicated hem1Δ yeast; type: cell-based, Saccharomyces cerevisiae; conditions: after 3 days, increasing concentrations
Experimental: The strain bearing the hem1Δ mutation is grown, under aerobic conditions, with shaking and at 28° C., in liquid YPG^A medium (YPG (1% yeast extract (w/v), 1% peptone (w/v) and 2% glucose (w/v)) supplemented with 80 μg/ml 6-aminolevulinic acid (ALA)). Lipointoxication by saturated fatty acids (SFA) is caused by depletion of unsaturated fatty acids (UFA), the synthesis of which is dependent on the presence of heme (the prosthetic group of the Ole1p enzyme in particular), by transfer to YPG^+ medium (YPG supplemented with 80 μg/ml ergosterol to compensate for the sterol depletion obtained under this condition). Lipointoxication can be induced on solid YPG^+ medium+2% agar (w/v) by transferring 3500 cells (hem1Δ from preculture in YPG^A) per cm^2 or, alternatively, in liquid medium by inoculating 2×10^6 cells/ml YPG^+. Classically, the effects of SFA lipointoxication are analyzed 7 hours after the transfer to YPG^+ medium. The ability of a compound to counter the deleterious effects of SFA lipointoxication, in turn, is evaluated successively to the addition of this compound on (or in) the YPG^+ transfer medium, after seeding with the cells.
Following the induction of SFA lipointoxication (for hem1Δ grown on solid medium) 5 μl drops of solutions of the various compounds at 10 mM in dimethylsulfoxide (DMSO) or ethanol (EtOH) are deposited on the surface of the agar. The ability of a compound to counter the arrest of lipid-induced cell growth is estimated by the appearance of a halo of hem1Δ colonies at the site of the deposition of said compound after 3 days of culture at 28° C. (see Deguil et al., 2011).
Jointly with the induction of SFA lipointoxication (for hem1Δ in liquid medium), the various compounds are added to the cultures at an initial concentration of 200 μM. Proliferation is monitored by spectrometric measurement of cell density, at regular time intervals (every hour over the duration of the observation). At a wavelength of 600 nm, one optical density unit (OD600 nm) corresponds to 2×10^7 cells/ml.

[2] = test system: QM strain (cells not synthesizing triglycerides); assay: Toxicity test on QM strain (growth inhibition halos); type: cell-based, Saccharomyces cerevisiae; conditions: 5 μl drops on agar, after three days
Experimental: Drops (5 μl) of OAG, LPA or oleic acid were deposited, from stock solutions at the indicated concentrations, on the surface of an agar medium over which the QM strain had been spread beforehand. […] These halos are, however, not observed in the presence of LPA or of OAG.
In parallel, wild-type (WT) and quadruple mutant (QM) strains are grown, under aerobic conditions, with shaking and at 28° C., in liquid YPG medium before seeding 3500 cells per cm^2 of YPG+2% agar (w/v). Following this transfer to solid medium, 1 μl drops of 1, 10 and 100 mM solutions of the various compounds in DMSO or EtOH are deposited on the agar surface. Separately, DMSO and EtOH are also deposited in order to evaluate the intrinsic toxicity of these two solvents. After 3 days of culture at 28° C., the toxicity of the compounds tested is evaluated by comparing the growth inhibition halo diameters obtained for the depositions of pure solvent with those of the depositions of the various concentrations of the compounds tested. Unlike the WT strain, the QM strain is incapable of buffering excess exogenous oleic acid in the form of neutral lipids (triglycerides (TG) or esterified sterols (ES)) in lipid droplets.

[3] = test system: BRIN-BD11 pancreatic β-cells; assay: Cell viability of palmitic acid-lipointoxicated pancreatic β-cells (propidium iodide, flow cytometry); type: cell-based, rat; conditions: BRIN-BD11, 200 μM palmitic acid
Experimental: (§1) Pancreatic β-cells, BRIN-BD11, were grown under control conditions or in the presence of an exogenous source of saturated fatty acid (200 μM palmitic acid), as described by Dhayal & Morgan (2011), in order to generate lipointoxication conditions, with or without the addition of OAG. A) The proportion of dead cells was estimated in the absence (control) or presence of palmitic acid, for increasing concentrations of OAG. B) eIF2α phosphorylation levels were also analyzed under the various conditions by Western blot, in the presence or absence (Ø) of OAG, and were normalized to total eIF2α.
The lipid species are prepared in ethanol before being complexed with bovine serum albumin (BSA, first depleted of fatty acids) by incubation for 1 hour at 37° C. The palmitic acid stock solution is obtained by adding one volume of ethanol before the whole is heated to 70° C. for homogenization. OAG and LPA solutions are prepared in 100% ethanol at room temperature. For the incubations of mammalian cells, the final BSA and ethanol concentrations in the culture medium are kept at 1% and 0.5% (w/v), respectively.
The rat pancreatic β-cell line (BRIN-BD11) is grown in complete RPMI-1640 medium, containing 11 mM glucose and supplemented with 10% (v/v) fetal calf serum (FCS), 2 mM L-glutamine, 100 U/ml penicillin and 100 μg/ml streptomycin. For each experiment, the cells are first seeded at a density of 0.5×10^5 cells/ml in 6-well plates for 24 hours. Thereafter, the complete medium is replaced by an equivalent lacking FCS but containing the lipid reagents of interest, at the desired concentrations, complexed with BSA. Under the control conditions, identical amounts of BSA and ethanol are then used. […] After incubation on ice for 10 minutes, the samples thus obtained are analyzed by flow cytometry. A Beckman Coulter EPICS XL MCL is used for the quantification, an FL3 channel is used to detect the emissions of the PI intercalated in the DNA, and the analysis is carried out using the EXPO32 ADC software (Applied Cytometry Systems, V 1.1 build 207).

[4] = test system: eIF2α phosphorylation (UPR); assay: eIF2α phosphorylation by Western blot in lipointoxicated β-cells; type: cell-based, rat; conditions: BRIN-BD11, 200 μM palmitic acid
Experimental: as §1
BRIN-BD11 cells are seeded at a density of 0.5×10^5 cells/ml in T25 flasks for 24 hours. As indicated above, the complete medium is then replaced by an equivalent lacking FCS but containing the lipid reagents of interest. After 6 hours of incubation, total protein is extracted using lysis buffer (20 mM Tris, 150 mM NaCl, 1 mM EDTA and 1% (v/v) Triton-X) containing protease and phosphatase inhibitors. […] The densitometric analysis of the relative abundance of phosphorylated or non-phosphorylated forms of eIF2α protein is carried out with the Fluor-S Multilmager analysis system combined with the Quantity One software (Bio-Rad UK Ltd).

Row | SMILES | Restoration of the growth of hem1Δ yeasts [1] | Growth inhibition halos on QM strain [2] | Apoptosis / proportion of dead cells of pancreatic β-cells [3] | eIF2α phosphorylation level normalized to total eIF2α (UPR intensity) [4]
1 | CCCCCCCC/C=C\CCCCCCCC(=O)OC[C@@H](O)COP(=O)(O)O [LPA, 1-oleoyl-sn-glycerol-3-phosphate] | restore the growth | not observed | – | –
2 | CCCCCCCC/C=C\CCCCCCCC(=O)OC[C@H](CO)OC(C)=O [OAG, 1-oleoyl-2-acetyl-sn-glycerol] | restore the growth | not observed | prevents apoptosis | reduces the UPR
